Reference: a melting point compilation (Tetko et al.; mined from patent text by program, amines drawn as free bases though some values may be those of a salt)

Structure (SMILES)	melting point
CCOC(=O)c1cn(C2CC2)c2c(OC(F)F)c(Br)ccc2c1=O	253 °C
Cc1ncc(C#N)c(Nc2ccc3[nH]ccc3c2C)c1-c1ccc(OCCN2CCN(C)CC2)cc1	183 to 184 °C
COc1ccc(CCNC(=O)NO)cc1OC	109 to 111 °C
Cc1ccc(-c2ccc3c(c2)C=C(C(CN(C)C2CCOCC2)Oc2ccccc2)CCO3)cc1 (stereo not given)	135 to 136 °C
CC(=O)Nc1nc(CCc2ccc(NC(=N)N)cc2)c(C(=O)N2CCN(C(C)=O)CC2)s1	206 to 208 °C
COc1c(C)c(C(O)(c2cccnc2)C(C)C)c(OC)c2ccccc12 (stereo not given)	130 to 131 °C
I[Si](c1ccccc1)(c1ccccc1)c1ccccc1	221 to 225 °C
O=C(O)/C=C/C=C(c1ccc(-c2ccccc2)cc1)c1ccc(-c2ccccc2)cc1	253 to 255 °C
c1ccc2cc(OCCNC3CCCCC3)ccc2c1	89 °C
CNc1nc(N)nc(NC2CC2)n1	159 to 162 °C
CNc1nc(-c2ccc(Br)cc2)cs1	147 °C
CN(C)CCCN(C)C1CCC2C3CCC4CCCCC4(C)C3C(O)CC21C (stereo not given)	130 to 131 °C
C[C@@H]1Cc2ccsc2[C@H](C)N1CCNC(=O)c1ccc(C(F)(F)F)cc1 (relative stereo)	88 to 91 °C
CC(=O)OCCN1C2=NCCN2C(=O)c2ccccc21	124 to 126 °C
OC(c1ccc(Cl)cc1Cl)C(Oc1ccc(Cl)cc1)n1ccnc1 (stereo not given)	108 to 110 °C
COC(=O)[C@H](Cc1ccc(OCCN2CCC(O)(c3ccccc3)CC2)cc1)NC(=O)[C@@H]1CCCN1S(=O)(=O)c1ccc(C)cc1	122 to 123 °C
CCN1CCC2(c3cccc(OC)c3)Cc3[nH]c(C(N)=O)c(C)c3CC2C1 (stereo not given)	176 to 178 °C
Nc1ccc2c(c1)CS(=O)(=O)N2CCF	119 to 121 °C
O=C1C(=O)N(Cc2ccc(C(F)(F)F)o2)c2cccc(Cl)c21	148 to 150 °C
O=C(Nc1c(C(=O)c2ccccc2)[nH]c2cc(Cl)ccc12)c1ccccc1Cl	229 to 234 °C
CCOC(CN1CCOCC1)CN1C(=O)c2ccccc2CS1(=O)=O (stereo not given)	128 to 129 °C
O=c1[nH]c2cc(Cl)ccc2n(CCO)c1=O	295 °C
O=c1nc(N2CCc3ccccc32)sc2ncccc12	249 to 250 °C
CCOC1(OCCc2nc(C(C)C)c(Sc3cc(Cl)cc(Cl)c3)n2C)CCCCCC1	53 to 54 °C
Nc1nc(NCCN2CCN(C(c3ccccc3)c3ccccc3)CC2)nc(-c2cc(Cl)ccc2Cl)n1	192 to 193 °C

Structure (SMILES)	melting point
CSc1ccc(C(C#N)=NO)cc1SC	131 to 133 °C
CCCOc1ccccc1-c1nc2ncncc2c(=O)n1N	261 to 262 °C
CC(C)Nc1nc2c(Cl)c(Cl)c(Cl)cc2n1[C@H]1O[C@@H](CO)[C@H](O)[C@@H]1O	223 to 224 °C
Cn1cc(C(=O)NCc2ccc(Cl)cc2)c(=O)c2cc(CN3CCOCC3)cc(C#CCCO)c21	168 to 170 °C
CC(C)(C)OC(=O)NCCNC(=O)c1cscn1	112 to 118 °C
Cc1ccc(-n2cc(C(=O)O)c(=O)c3cc(F)c(F)c(F)c32)cc1	110 to 111 °C
CS(=O)(=O)N1C(=O)C2(COc3cc4c(cc32)OCO4)c2ccccc21 (stereo not given)	215 to 217 °C
CCCCCCCCC1C=CC(CCc2ccc(C(=O)O)o2)=C2N=C3CCCCC3=C21 (stereo not given)	110 to 111 °C
Fc1cc2nn(CCC#Cc3ccccn3)nc2cc1F	131 to 132 °C
Cc1ccc(-c2c3n(c(=O)c4ncccc24)CCN(Cc2cc(C(F)(F)F)cc(C(F)(F)F)c2)C3=O)cc1	270 to 271 °C
C#CC(=O)c1cc(C(C)(C)C)c(O)c(C(C)(C)C)c1	100 to 101 °C
COC(=O)C(=O)Nc1cccc(C(=O)Nc2nnn[nH]2)c1	253 to 254 °C
CC(=O)OCC(C)(C)C(OC(C)=O)C(Oc1ccc(Cl)cc1)n1cncn1 (stereo not given)	84 to 87 °C
CCOC(=O)c1nnc2ccc(-c3ccco3)cc2c1O	198 to 200 °C
CONC(=O)c1nc(-c2ccc(Cl)c(OC)c2F)cc(N)c1Cl	215 to 217 °C
Nc1ccc2ccccc2c1S	108 to 110 °C
OC1CSC(Oc2cnc(-c3cccnc3)c(F)c2)C(O)C1O (stereo not given)	179 °C
NC(=O)CCC1CN(c2ccc(C3=CCN(C=O)CC3)c(F)c2)C(=O)O1 (stereo not given)	148 to 151 °C
CCC(=O)C1=C(O)CC(c2cccc(Oc3ccc(S(C)(=O)=O)cc3)c2)CC1=O (stereo not given)	136 to 138 °C
CCOc1ccc(C(=O)Nc2ccccc2)cc1N	189 to 190 °C
O=C(c1cccs1)N(CCCSc1ccncc1)c1ccccc1	66 to 67 °C
CCCn1c(CCOC)nc2c(N)nc3cc(OC4CCOC4)ccc3c21 (stereo not given)	192 to 194 °C
COc1ccc(NC(=O)CCCCC(=O)N(C)OC)cc1	89 to 90 °C
OCc1csc(Cl)c1Cl	63 to 65 °C
Cc1c(-c2ccccc2)oc2c(S(=O)CCCCCl)cccc2c1=O (stereo not given)	124 to 125 °C

Structure (SMILES)	melting point
CCC1SCCCN1C(=S)Nc1cccc(Br)c1 (stereo not given)	77 to 79 °C
COc1cc(COc2nn(-c3ccccc3)cc2CC#N)ccc1OCc1nc(-c2ccco2)oc1C	153 to 154 °C
CCCOc1ccc(-c2scc(-c3ccccc3Cl)c2CC(=O)NC(=N)NCCCO)c(C)c1	103 to 106 °C
COc1ccc(C(=O)CCCCCN2CCC(CNC(=O)c3cc(Cl)c(N)cc3OC)CC2)cc1	133 to 135 °C
O=C(O)CCCCCCCCCC=Cc1ccco1	38 to 39 °C
O=C(O)Cc1ccc(C(=O)c2ccc(Cl)cc2)s1	165 °C
CNC(=O)N1CCSC1c1ccccc1OCCN1CCN(c2ccccc2)CC1 (stereo not given)	133 to 135 °C
COc1ccc(Nc2nc(N)nc3c2ncn3C2CC(F)C(CO)O2)cc1 (stereo not given)	190 to 191 °C
COC1=C(OC)C(=O)c2c(cccc2S(=O)c2ccccc2)C1=O (stereo not given)	165 to 167 °C
CC(=O)OCc1ccc(N(c2ccccc2)c2ccc(C=O)cc2)cc1	86 to 89 °C
O=c1c(=NNc2ccccc2)c(=O)n(-c2ccccc2)c2ccccc2n1CCC1C2CC3CC(C2)CC1C3 (stereo not given)	130 to 131 °C
CC(=O)N(C)[C@@H]1CN2C(=O)N(c3cc(Cl)cc(Cl)c3)C(=O)[C@@]2(Cc2ccc(OC(F)(F)F)cc2)C1	74.7 °C
CSC(=NC#N)NS(=O)(=O)c1cc(Cl)ccc1Cl	145 °C
CCCCN(c1nc(NCCCCCCN)nc(N(CCCC)C2CC(C)(C)N(C)C(C)(C)C2)n1)C1CC(C)(C)N(C)C(C)(C)C1	125 °C
COC(=O)c1cc2c(cc1O)OCO2	100 to 101 °C
Cc1cccc(C)c1NC(=O)CCS(=O)(=O)c1cc(C(C)(C)C)c(O)c(C(C)(C)C)c1	218 to 219 °C
NS(=O)(=O)c1ccc(-c2cnn(-c3ccc(F)c(F)c3)c(=O)c2Oc2ccc(F)cc2)cc1F	224 to 226 °C
CC1(C)C(C(=O)NC(=O)CN)C1(C)C	176 °C
CC(C)(C)c1cccc(S(=O)(=O)n2c(Cc3ccc(C(=O)O)cc3F)cc3cc(C(F)(F)F)ccc32)c1	177 °C
CCc1noc(-c2ncc3[nH]c4cccc(OCc5ccccc5)c4c3c2COC)n1	180 to 184 °C
O=C(O)C(F)c1ccc(Cl)cc1 (stereo not given)	66 to 68 °C
Cc1cccc(NC(=O)NCC(=O)N(CC(=O)N2CCC3(CCCC3)CC2)c2ccccc2)c1	183 °C
COC(=O)COc1cc2c(c(Cl)c1Cl)C(=O)C(CC#C[Si](C)(C)C)(c1ccccc1)C2 (stereo not given)	126 to 127 °C
O=C1CCc2cc(CN3CCN(C(=O)c4ccc(Oc5ccc(NC(=O)c6ccc(C(F)(F)F)cc6)cn5)cc4)CC3)ccc2N1	250 to 252 °C
O=C1CCC(c2ccccc2)(c2ccccc2)C2CN(C(Cc3ccccc3)=NCCc3ccccc3)CC12 (stereo not given)	188 °C

Structure (SMILES)	melting point
Cc1cc2ncc(Cl)nc2cc1C	103 °C
CC(C)(C)c1cc(-c2csc(SCC(=O)O)n2)cc(C(C)(C)C)c1O	158 to 159 °C
COc1cc(OC)c2cc(C(=O)c3ccccc3)c(=O)oc2c1	178 to 179 °C
CN(Cc1cn[nH]c1)C1CCN(C(=O)c2ccc(Nc3nccc(Nc4ccc(F)cc4)n3)cc2)CC1	140 to 145 °C
COc1ccc(NC(=O)C23CC4CC(CC(C4)C2)C3)cc1OC	224 to 226 °C
Cc1cccnc1-c1cc2cccnc2c(Cl)n1	130 to 131 °C
O[C@@H]1CNCC[C@H]1NCc1ccccc1 (relative stereo)	136 °C
Cc1cc2c(CN3CCC(C)CC3)c(CO)c(Cl)nc2cc1Cl	170 to 172 °C
CCCc1c(OCc2ccccc2)ccc2c(=O)cc(CO)[nH]c12	197 to 199 °C
CCOCOC1(C(=O)CO)C(C)CC2C3CC(C)C4=CC(=O)C=CC4(C)C3C(O)CC21C (stereo not given)	100 to 102 °C
COc1c(C)c(N2CCN(c3ccc(F)cc3)CC2)c(C)c2c1OC(C)C2 (stereo not given)	114 to 116 °C
CCNc1ccc(C(C)=O)cc1S(N)(=O)=O	201 to 204 °C
COc1cc(OC)c(-c2cccnc2)cc1/C=C/C(=O)c1ccc(S(N)(=O)=O)cc1	253 to 255 °C
Cc1c(S(=O)(=O)C[N+](=O)[O-])cc2c(c1C)OC(C)(C)CC2	98.5 to 99.5 °C
CCN(CC)c1ccc(-c2nnc(Nc3ccc(Br)c(Cl)c3)s2)cc1	232 to 233 °C
CCOC(=O)CN(CCc1ccccc1)C(=O)CCc1nc2c(F)c(F)cc(F)c2s1	78 to 81 °C
O=C(O)C(F)c1cccc(OCc2ccccc2Cl)c1OCc1ccccc1Cl (stereo not given)	92 to 94 °C
CCCOc1ccc(CN/C=C2\C(=O)NC(=O)c3ccc(-c4ccc(F)cc4)cc32)cc1O	194 to 195 °C
CCOC(=O)C1(C)OC(C)=C(O)C1=O (stereo not given)	89.2 to 89.5 °C
CC(C)(C)OC(=O)/C(=C/c1ccc2ccccc2c1)C(=O)c1ccccc1O	111 to 112 °C
COc1cc(-c2ccc(NCc3ccccc3)nn2)ccc1OC(F)F	136 °C
O=C1CCC(=O)N1c1ncccn1	148 to 150 °C
CCC(CC)c1nn(-c2ccc(C(F)(F)F)cn2)cc1CCCO	79 to 80 °C
O=C(CCCN1CCC(NC(=O)c2ccccc2)CC1)c1ccccc1	143 to 144 °C
CNC(SC)=C(C#N)C#N	119 to 120 °C
